Results: PubChem BioAssay (NCI)
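Results reflect a 48-hour exposure of cells in 96-well plates to compound at five concentrations. GI50: concentration for 50% inhibition of growth. The concentration for full growth arrest is given as TGI.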

Legend:
Assay in all cases: NCI-60 cell line screen, 48 h
EKVX NSCLC = test system: EKVX NSCLC
RXF 393 renal = test system: RXF 393 renal
SK-MEL-5 melanoma = test system: SK-MEL-5 melanoma
UACC-62 melanoma = test system: UACC-62 melanoma
OVCAR-5 ovarian = test system: OVCAR-5 ovarian
COLO 205 colon = test system: COLO 205 colon
CCRF-CEM leukemia = test system: CCRF-CEM leukemia
NCI/ADR-RES ovarian = test system: NCI/ADR-RES ovarian
SF-539 CNS = test system: SF-539 CNS
HCC-2998 colon = test system: HCC-2998 colon

Compound | GI50 (EKVX NSCLC) [µM] | TGI (EKVX NSCLC) [µM] | GI50 (RXF 393 renal) [µM] | TGI (RXF 393 renal) [µM] | GI50 (SK-MEL-5 melanoma) [µM] | TGI (SK-MEL-5 melanoma) [µM] | GI50 (UACC-62 melanoma) [µM] | TGI (UACC-62 melanoma) [µM] | GI50 (OVCAR-5 ovarian) [µM] | TGI (OVCAR-5 ovarian) [µM] | GI50 (COLO 205 colon) [µM] | TGI (COLO 205 colon) [µM] | GI50 (CCRF-CEM leukemia) [µM] | TGI (CCRF-CEM leukemia) [µM] | GI50 (NCI/ADR-RES ovarian) [µM] | TGI (NCI/ADR-RES ovarian) [µM] | TGI (SF-539 CNS) [µM] | TGI (HCC-2998 colon) [µM] | GI50 (SF-539 CNS) [µM] | GI50 (HCC-2998 colon) [µM]
O=C1C(Nc2cccc(O)c2)=C(Sc2ccccc2)C(=O)N1Cc1ccccc1 | 10.1 | 28.5 | 5.07 | 25.6 | 2.37 | 17 | 5.3 | 18.9 | 18.2 | 34.1 | 17 | 35.9 | 1.88 | 10.1 | 11.5 | 31.9 | – | – | – | –
CC1CCC2(C)C(CC=C(C=O)C2(O)C=O)C12CO2 (stereo not given) | – | 23.3 | – | 2.85 | – | – | – | 4.02 | – | 8.03 | – | 4.29 | – | 4.01 | – | – | 4.52 | 11.3 | – | –
N#CNC1=NC(N)C(c2nc3ccccc3[nH]2)=C(CCCC(=O)Nc2cccc([N+](=O)[O-])c2)N1 (stereo not given) | – | > 100 | – | > 100 | – | > 100 | – | > 100 | – | > 100 | – | > 100 | – | > 100 | – | – | > 100 | > 100 | – | –
C=CC[N+]1(CC)CCN=C1CCCCCCCCCCCCCCCCC (stereo not given) | – | – | 0.205 | 0.836 | 0.355 | 1.3 | 0.935 | 2.3 | 0.472 | 1.64 | 0.651 | 2.29 | – | – | – | – | 2.05 | 0.797 | 0.752 | 0.241
CC(C)N(Cc1ccc(F)cc1)c1ccc(CO)c(Cl)c1 | – | – | 2.51 | 19.6 | 8.67 | 21.8 | 0.0664 | 0.4 | 0.0576 | 0.247 | 1.03 | 7.17 | 12.1 | 33.4 | 10.4 | 23.8 | 26.5 | 20 | 13.4 | 2.81
O=S(=O)(NCCCNc1nccc(-c2c(-c3ccc(F)cc3)nc3sccn23)n1)c1ccc(F)cc1 | – | – | 3.67 | 70.8 | 4.63 | 57.9 | 4.68 | 50.7 | > 100 | > 100 | 6.23 | > 100 | 3.91 | > 100 | 6.6 | > 100 | > 100 | > 100 | 42.1 | 20.6
Clc1ccc([I+]c2ccc(Cl)cc2Cl)c(Cl)c1 | – | – | – | – | 6.04 | 20.3 | – | – | 1.8 | 3.8 | 1.95 | 3.64 | 2.09 | 5.32 | 9.47 | 32 | 3.39 | – | 1.8 | –
CC(C)OC(=O)C1Cc2c([nH]c3ccccc23)C(c2ccccc2)N1 (stereo not given) | – | > 100 | – | 98.3 | – | > 100 | – | > 100 | – | > 100 | – | > 100 | – | > 100 | – | – | > 100 | > 100 | – | –
CN(C)CCCn1c2c(c3cc4c(cc3c1=O)OCO4)C(=O)c1ccccc1-2 | 5.55 | 34.9 | 0.852 | 8.93 | 1.93 | 7.07 | 1.05 | 9.57 | 11.1 | 45.7 | 7.61 | > 100 | 0.192 | 3.51 | – | – | 13.4 | – | 3.57 | 0.121
CN1CCCC1c1cccnc1.O=C(O)c1ccccc1O.O=C([O-])c1ccccc1[OH2+].O=C([O-])c1ccccc1[OH2+].[Mn+2] (stereo not given) | > 100 | > 100 | > 100 | > 100 | > 100 | > 100 | > 100 | > 100 | 73.1 | > 100 | > 100 | > 100 | 24.8 | 97.8 | > 100 | > 100 | – | – | – | –
Cc1ccc(S(=O)(=O)NC(=O)OC23COCN2COC3)cc1 | – | > 100 | – | > 100 | – | > 100 | – | > 100 | – | > 100 | – | > 100 | – | – | – | > 100 | > 100 | > 100 | – | –
NC(=O)CC(N)c1nn[nH]n1 (stereo not given) | – | > 100 | – | > 100 | – | > 100 | – | > 100 | – | > 100 | – | > 100 | – | > 100 | – | > 100 | > 100 | – | – | –
C=CC(=O)N[C@@H](/C=C/C(=O)OCC)Cc1ccc(-c2cc(Cl)cc(Cl)c2)cc1 | 11.2 | > 100 | 7.96 | 35.3 | 4.46 | 17.5 | 4.6 | 25.2 | 21.6 | > 100 | 14.8 | 53.9 | – | – | 11.9 | 73.3 | 39.1 | 57.6 | 16.6 | 19.9
O=[N+]([O-])c1cc(Cc2cc([N+](=O)[O-])c3cccnc3c2O)c(O)c2ncccc12 | – | 61.9 | – | 18 | – | 24.5 | – | 27.6 | – | 76.1 | – | 56 | – | 6.39 | – | 54.1 | > 96 | – | – | –
C[P+]1(c2ccccc2)CCCCC1 | – | > 100 | – | > 100 | – | > 100 | – | > 100 | – | > 100 | – | > 100 | – | > 100 | – | – | > 100 | > 100 | – | –
C=C1C=CC2(Br)OC3CC(C)(Cl)C(Br)CC13C2(C)C (stereo not given) | – | 61.9 | – | – | – | 31 | – | 34.3 | – | 57.6 | – | 30.9 | – | 47.5 | – | – | 38.9 | 42.7 | – | –
Cn1nc(-c2ccccc2)c(C(=O)/C=C/c2ccc(Cl)cc2)c(N2CCOCC2)c1=O | – | 27.1 | – | 6.79 | – | 17.2 | – | 10.7 | – | – | – | 3.79 | – | 7.1 | – | – | 7.67 | – | – | –
O=c1[nH]c(=S)[nH]c(-c2ccccc2)c1Cc1c(O)ccc2ccccc12 | – | 64.4 | – | 95.1 | – | 43.8 | – | 52.4 | – | > 100 | – | 42.1 | – | 41 | – | > 100 | 82.1 | – | – | –
